Here are results for 31 compounds from patent US20230391752A1, “PYRROLIDINE-3-CARBOXAMIDE DERIVATIVES AND RELATED USES” (Chulalongkorn University, priority 2020, published 2023).

In the test the test system is HBV. Description: In vitro anti-HBV activity in HepG2.2.15 cell line (intracellular HBV DNA by qPCR at 1 μM). The test is classed as cell-based. The following applies: Hepatitis B virus, 144 h; HepG2.2.15 cells, 1 μM compound, 6 days, intracellular HBV DNA as percentage compared to vehicle control (0.5% DMSO). The method, then: The stable transfected HBV cell line, called HepG2.2.15 cells was a valuable model with high reproducibility and commonly used for drug screening. To identify the anti-HBV activity, HepG2.2.15 cells were seeded at 5×10^5 cells/well with high glucose Dulbecco's modified Eagle medium (DMEM) containing 10% heat inactivated fetal bovine serum (FBS), 300 mg/L G418, non-essential amino acids (NEAA) 100 units/ml Antibiotic-Antimycotic, and allowed to stand for an overnight in an incubator set at 37° C. and 5% C02. HepG2.2.15 cells in each well were treated with the medium containing a compound (1 μM with 0.5% dimethyl sulfoxide (DMSO final concentration) for three days in the incubator. After that the medium was removed and fresh medium containing the compound was added to the cells for another 3 days. After 6 days of treatment, intracellular HBV DNA was extracted and determined by using quantitative real-time PCR (qPCR) technique with specific primers. Intrahepatic HBV DNA viral load was reported as percentage compared to vehicle control (0.5% DMSO) as shown in Table A.
“B” means % ranging between 80 and 90; “C” means % ranging between 70 and 80; “D” means % ranging between 60 and 70; “E” means % ranging between 45 and 60, “F” means %<45.

Structures are written as SMILES.

`Cc1ccc(C(=O)N2CC[C@H](C(=O)Nc3cc(F)c(F)c(Br)c3)C2)[nH]1` [Example 51, (S)—N-(3-bromo-4,5-difluorophenyl)-1-(5-methyl-1H-pyrrole-2-carbonyl)pyrrolidine-3-carboxamide] gave an activity at 1 µM of 45 to 60%.

Regarding `Cc1nccnc1-c1ccc(C(=O)N2CC[C@H](C(=O)Nc3cc(F)c(F)c(F)c3)[C@@H]2C)[nH]1` [Example 93, (2S,3S)-2-methyl-1-(5-(3-methylpyrazin-2-yl)-1H-pyrrole-2-carbonyl)-N-(3,4,5-trifluorophenyl) pyrrolidine-3-carboxamide], the activity at 1 µM is < 45%.

For `Cc1ncnc(C)c1-c1ccc2c(Cl)c(C(=O)N3CC[C@H](C(=O)NCc4cnc(Cl)s4)C3)[nH]c2c1` [Example 136, (S)-1-(3-chloro-6-(4,6-dimethylpyrimidin-5-yl)-1H-indole-2-carbonyl)-N-((2-chlorothiazol-5-yl)methyl)pyrrolidine-3-carboxamide], the activity at 1 µM is > 90%.

For the compound `O=C(Nc1cc(F)c(F)c(F)c1)[C@H]1CCN(C(=O)c2ccc(-c3cncnc3)[nH]2)C1` [Example 79, (S)-1-(5-(pyrimidin-5-yl)-1H-pyrrole-2-carbonyl)-N-(3,4,5-trifluorophenyl)pyrrolidine-3-carboxamide], the activity at 1 µM was < 45%.

`Cc1cc[nH]c(=O)c1-c1ccc(C(=O)N2CC[C@H](C(=O)Nc3cc(F)c(F)c(F)c3)C2)[nH]1` [Example 118, (S)-1-(5-(4-methyl-2-oxo-1,2-dihydropyridin-3-yl)-1H-pyrrole-2-carbonyl)-N-(3,4,5-trifluorophenyl)pyrrolidine-3-carboxamide] yielded an activity at 1 µM of 60 to 70%.

For `O=C(Nc1cc(F)c(F)c(F)c1)[C@H]1CCN(C(=O)c2cc3occc3[nH]2)C1` [Example 9, (S)-1-(4H-furo[3,2-b]pyrrole-5-carbonyl)-N-(3,4,5-trifluorophenyl)pyrrolidine-3-carboxamide], the activity at 1 µM lay in the range of 80 to 90%.

For the compound `Cc1cc(NC(=O)[C@@H]2CN(C(=O)c3ccc(-c4c(C)n[nH]c4C)[nH]3)C[C@H]2C)ccc1F` [Example 169, (3S,4S)-1-(5-(3,5-dimethyl-1H-pyrazol-4-yl)-1H-pyrrole-2-carbonyl)-N-(4-fluoro-3-methylphenyl)-4-methylpyrrolidine-3-carboxamide], the activity at 1 µM is < 45%.

As for `O=C(Nc1ccc(F)c(Cl)c1)[C@H]1CCN(C(=O)c2nc3cccnc3[nH]2)C1` [Example 69, (S)—N-(3-chloro-4-fluorophenyl)-1-(3H-imidazo[4,5-b]pyridine-2-carbonyl)pyrrolidine-3-carboxamide], the activity at 1 µM lay in the range of 70 to 80%.

`O=C(Nc1cc(F)c(F)c(Br)c1)[C@H]1CCN(C(=O)c2cc3cnccc3[nH]2)C1` [Example 53, (S)—N-(3-bromo-4,5-difluorophenyl)-1-(1H-pyrrolo[3,2-c]pyridine-2-carbonyl)pyrrolidine-3-carboxamide] showed an activity at 1 µM of 70 to 80%.

`O=C(Nc1cc(F)c(F)c(F)c1)[C@H]1CCN(C(=O)c2cc3ncccc3[nH]2)C1` [Example 14, (S)-1-(1H-pyrrolo[3,2-b]pyridine-2-carbonyl)-N-(3,4,5-trifluorophenyl)pyrrolidine-3-carboxamide] yielded an activity at 1 µM of 70 to 80%.

`CC(C)c1ccc(C(=O)N2CC[C@H](C(=O)Nc3cc(F)c(F)c(F)c3)C2)[nH]1` [Example 61, (S)-1-(5-isopropyl-1H-pyrrole-2-carbonyl)-N-(3,4,5-trifluorophenyl)pyrrolidine-3-carboxamide] came in with an activity at 1 µM of 60 to 70%.

In the case of `O=C(Nc1cc(F)c(F)c(F)c1)[C@H]1CCN(C(=O)c2ccc(Cc3cccnc3)[nH]2)C1` [Example 143, (S)-1-(5-(pyridin-3-ylmethyl)-1H-pyrrole-2-carbonyl)-N-(3,4,5-trifluorophenyl)pyrrolidine-3-carboxamide], the activity at 1 µM is > 90%.

Compound `O=C(Nc1cc(F)c(F)c(F)c1)[C@H]1CCN(C(=O)c2ccc(-c3cccnc3)[nH]2)C1` [Example 82] gave an activity at 1 µM of 45 to 60%.

Compound `O=C(Nc1cc(F)c(F)c(F)c1)[C@H]1CCN(C(=O)c2cc3sccc3[nH]2)C1` [Example 7, (S)-1-(4H-thieno[3,2-b]pyrrole-5-carbonyl)-N-(3,4,5-trifluoro-phenyl)pyrrolidine-3-carboxamide] yielded an activity at 1 µM of 60 to 70%.

`O=C(Nc1cc(F)c(F)c(F)c1)[C@H]1CCN(C(=O)c2ccc(CO)[nH]2)C1` [Example 56, (S)-1-(5-(hydroxymethyl)-1H-pyrrole-2-carbonyl)-N-(3,4,5-trifluorophenyl)pyrrolidine-3-carboxamide]: the activity at 1 µM is > 90%.

`Cc1ccc2cc(C(=O)N3CC[C@H](C(=O)Nc4cc(F)c(F)c(F)c4)C3)[nH]c2c1` [Example 13, (S)-1-(6-methyl-1H-indole-2-carbonyl)-N-(3,4,5-trifluorophenyl)pyrrolidine-3-carboxamide] had an activity at 1 µM of 60 to 70%.

In turn, `O=C(Nc1cc(F)c(F)c(F)c1)[C@H]1CCN(C(=O)c2[nH]c3ncccc3c2Cl)C1` [Example 59, (S)-1-(3-chloro-1H-pyrrolo[2,3-b]pyridine-2-carbonyl)-N-(3,4,5-trifluorophenyl)pyrrolidine-3-carboxamide] showed an activity at 1 µM of 45 to 60%.

In the case of `Cc1cc(NC(=O)[C@H]2CCN(C(=O)c3ccc(-c4c(C)nn(CCO)c4C)[nH]3)[C@H]2C)ccc1F` [Example 126, (2S,3S)—N-(4-fluoro-3-methylphenyl)-1-(5-(1-(2-hydroxyethyl)-3,5-dimethyl-1H-pyrazol-4-yl)-1H-pyrrole-2-carbonyl)-2-methylpyrrolidine-3-carboxamide], the activity at 1 µM was < 45%.

`Cc1ccc(C(=O)N2CC[C@H](C(=O)Nc3cc(F)c(F)c(Cl)c3)C2)[nH]1` [Example 62, (S)—N-(3-chloro-4,5-difluorophenyl)-1-(5-methyl-1H-pyrrole-2-carbonyl)pyrrolidine-3-carboxamide] came in with an activity at 1 µM of 45 to 60%.

In turn, `O=C(Nc1cc(F)c(F)c(F)c1)[C@H]1CCN(C(=O)c2c[nH]c3ccccc23)C1` [Example 26, (S)-1-(1H-indole-3-carbonyl)-N-(3,4,5-trifluorophenyl)pyrrolidine-3-carboxamide] gave an activity at 1 µM of 80 to 90%.

Consider `N#Cc1cc(NC(=O)[C@H]2CCN(C(=O)c3ccc(Cl)[nH]3)C2)ccc1F` [Example 22, (S)-1-(5-chloro-1H-pyrrole-2-carbonyl)-N-(3-cyano-4-fluorophenyl)pyrrolidine-3-carboxamide], for which the activity at 1 µM is 60 to 70%.

Compound `O=C(Nc1cc(F)c(F)c(F)c1)[C@H]1CCN(C(=O)c2ccc[nH]2)C1` [Example 48, (S)-1-(1H-pyrrole-2-carbonyl)-N-(3,4,5-trifluorophenyl)pyrrolidine-3-carboxamide] yielded an activity at 1 µM of 80 to 90%.

Turning to `Cc1ccc(C(=O)N2CC[C@H](C(=O)Nc3cc(F)c(F)c(F)c3)C2)s1` [Example 44, (S)-1-(5-methylthiophene-2-carbonyl)-N-(3,4,5-trifluorophenyl)pyrrolidine-3-carboxamide], the activity at 1 µM lay in the range of 70 to 80%.

`O=C(Nc1cc(F)c(F)c(F)c1)[C@H]1CCN(C(=O)c2cc3ccncc3[nH]2)C1` [Example 47, (S)-1-(1H-pyrrolo[2,3-c]pyridine-2-carbonyl)-N-(3,4,5-trifluorophenyl)pyrrolidine-3-carboxamide] showed an activity at 1 µM of 80 to 90%.

Regarding `O=C(Nc1cc(F)c(F)c(F)c1)[C@H]1CCN(C(=O)c2cc3cccnc3[nH]2)C1` [Example 54, (S)-1-(1H-pyrrolo[2,3-b]pyridine-2-carbonyl)-N-(3,4,5-trifluorophenyl)pyrrolidine-3-carboxamide], the activity at 1 µM was in the range of 70 to 80%.

`Cc1ncccc1-c1ccc(C(=O)N2CC[C@H](C(=O)Nc3ccc(F)c(C#N)c3)C2)[nH]1` [Example 81, (S)—N-(3-cyano-4-fluorophenyl)-1-(5-(2-methylpyridin-3-yl)-1H-pyrrole-2-carbonyl) pyrrolidine-3-carboxamide] registered an activity at 1 µM of 45 to 60%.

The compound `O=C(Nc1cc(F)c(F)c(F)c1)[C@H]1CCN(C(=O)c2ccc(-c3cccnn3)[nH]2)C1` [Example 96, (S)-1-(5-(pyridazin-3-yl)-1H-pyrrole-2-carbonyl)-N-(3,4,5-trifluorophenyl)pyrrolidine-3-carboxamide] showed an activity at 1 µM of 45 to 60%.

`N#Cc1cc(NC(=O)[C@H]2CCN(C(=O)c3cc4cccnc4[nH]3)C2)ccc1F` [Example 18, (S)—N-(3-cyano-4-fluorophenyl)-1-(1H-pyrrolo[2,3-b]pyridine-2-carbonyl)pyrrolidine-3-carboxamide] showed an activity at 1 µM of 70 to 80%.

On to `C[C@H]1[C@@H](C(=O)Nc2cc(F)c(F)c(F)c2)CCN1C(=O)c1[nH]c2ccccc2c1CO` [Example 72, (2S,3S)-1-(3-(hydroxymethyl)-1H-indole-2-carbonyl)-2-methyl-N-(3,4,5-trifluorophenyl)pyrrolidine-3-carboxamide], for which the activity at 1 µM fell in the range of 60 to 70%.

The compound `O=C(Nc1ccc(F)c(Cl)c1)[C@H]1CCN(C(=O)c2ncc[nH]2)C1` [Example 32, (S)—N-(3-chloro-4-fluorophenyl)-1-(1H-imidazole-2-carbonyl)pyrrolidine-3-carboxamide] showed an activity at 1 µM of 80 to 90%.

`O=C(Nc1cc(F)c(F)c(F)c1)[C@H]1CCN(C(=O)c2cc3cnccc3[nH]2)C1` [Example 46, (S)-1-(1H-pyrrolo[3,2-c]pyridine-2-carbonyl)-N-(3,4,5-trifluorophenyl)pyrrolidine-3-carboxamide] gave an activity at 1 µM of 60 to 70%.
